According to patent US5935998A, “Use of all allylamine derivatives such as terbinafine, in the manufacture of a medicament for the treatment of helicobacter pylori infection or associated diseases” (Novartis AG, priority 1995, dated 1999):
In brackets after ≈: the same amount, converted by molar mass. Read-outs that look alike come from different tables or passages of the source.

How the values were obtained:
in vivo = settings: mouse, acute
Helicobacter pylori = test: MIC (minimum inhibitory concentration) determination using various clinical isolates of H.pylori; type: cell-based; settings: Mueller-Hinton agar with 7% defibrinated horse blood, pH 7.2, 72 hours, 37° C., 5% CO2
Description: The activity of the compounds of formula I against Helicobacter pylori can be verified e.g. by determination of the MIC (minimum inhibitory concentration) in the following test method using various clinical isolates of H.pylori: Clinical isolates of H.pylori are stored at -70° C. in Brucella broth with 20% glycerol. All isolates are subcultured on fresh blood agar Blood agar base No. 2, Unipath, with 5% defibrinated horse blood) and confirmed as Helicobacter pylori by Gram shin, catalase, oxidase and rapid-urease tests. Initial incubation is carried out microaerobically in a variable-atmosphere incubator (6% O2, 10% CO2, 3% H2, 81% N2) at 37° C. Subcultures and MIC tests are carried out in humidified air with 5% CO2 at 37° C. Test compounds are incorporated into Mueller-Hinton agar (Unipath) with 7% defibrinated horse blood at pH 7.2. After growth for 72 hours on blood agar H.pylori suspensions are made in Brucella broth (Unipath) equivalent to McFarland standard No. 3. This represents 10^8 cfu/ml H.pylori. A multipoint inoculator will deliver 1 μl per spot (approximately 10^5 cfu). The type strain NCTC 11637 is used as a control in each run. […] All tests are carried out in triplicate.

MIC (Helicobacter pylori)	SMILES	LD50 (in vivo; ip, i.p., read-out: LD50 i.p.)	LD50 (in vivo; po, p.o., read-out: LD50 p.o.)
–	CN(C/C=C/C#CC(C)(C)C)Cc1cccc2ccccc12	790 mg/kg	> 1000 mg/kg
0.06 to 4 µg/mL (≈ 0.183 to 12.2 µM)	C(=C\c1ccccc1)/CN1CCCC[C@@H]1c1cccc2ccccc12 [N-[(E)-3-phenyl-2-propenyl-2-piperidinyl]	–	–
